Measured values as given in the NIST ThermoML archive (doi:10.1021/je1009976).
Numbers after ± are expanded uncertainties.

Assay: xn = mol fraction of the nth substance listed
Settings: 101 kPa, Liquid; for viscosity: Capillary tube (Ostwald / Ubbelohde) method; for mass density: Pycnometric method

OCCOCCO [diethylene glycol] + O
Settings | mass density, 303.15 K [kg/m3] | mass density, 308.15 K [kg/m3] | mass density, 313.15 K [kg/m3] | mass density, 318.15 K [kg/m3] | mass density, 323.15 K [kg/m3] | viscosity, 303.15 K [mPa·s] | viscosity, 308.15 K [mPa·s] | viscosity, 313.15 K [mPa·s] | viscosity, 318.15 K [mPa·s] | viscosity, 323.15 K [mPa·s]
x1 = 0.05006 | 1028.38 ± 0.35 | 1026.09 ± 0.47 | 1023.67 ± 0.49 | 1021.08 ± 0.51 | 1018.36 ± 0.9 | 1.556 ± 0.4 | 1.37 ± 0.4 | 1.222 ± 0.4 | 1.091 ± 0.4 | 0.985 ± 0.4
x1 = 0.1016 | 1051.83 ± 0.34 | 1048.94 ± 0.53 | 1046.02 ± 0.54 | 1043.03 ± 0.55 | 1039.94 ± 0.79 | 2.582 ± 0.4 | 2.242 ± 0.4 | 1.962 ± 0.4 | 1.729 ± 0.4 | 1.535 ± 0.4
x1 = 0.1512 | 1067.99 ± 0.35 | 1065.34 ± 0.54 | 1062.04 ± 0.58 | 1058.72 ± 0.6 | 1055.2 ± 0.86 | 3.83 ± 0.4 | 3.286 ± 0.4 | 2.833 ± 0.4 | 2.459 ± 0.4 | 2.161 ± 0.4
x1 = 0.2012 | 1078.71 ± 0.51 | 1075.25 ± 0.6 | 1071.77 ± 0.61 | 1068.24 ± 0.63 | 1064.5 ± 0.68 | 5.261 ± 0.4 | 4.448 ± 0.4 | 3.806 ± 0.4 | 3.286 ± 0.4 | 2.846 ± 0.4
x1 = 0.2477 | 1086.55 ± 0.52 | 1082.95 ± 0.61 | 1079.42 ± 0.62 | 1075.76 ± 0.63 | 1072.18 ± 0.74 | 6.653 ± 0.4 | 5.591 ± 0.4 | 4.739 ± 0.4 | 4.052 ± 0.4 | 3.506 ± 0.4
x1 = 0.298 | 1092.27 ± 0.56 | 1088.52 ± 0.63 | 1084.97 ± 0.61 | 1081.58 ± 0.65 | 1077.47 ± 0.77 | 8.301 ± 0.4 | 6.91 ± 0.4 | 5.82 ± 0.4 | 4.962 ± 0.4 | 4.252 ± 0.4
x1 = 0.3505 | 1096.22 ± 0.58 | 1092.42 ± 0.65 | 1088.68 ± 0.65 | 1084.97 ± 0.65 | 1081.16 ± 0.72 | 9.851 ± 0.41 | 8.154 ± 0.41 | 6.821 ± 0.4 | 5.768 ± 0.4 | 4.929 ± 0.4
x1 = 0.4483 | 1101.17 ± 0.55 | 1097.58 ± 0.65 | 1093.68 ± 0.67 | 1089.91 ± 0.67 | 1086.1 ± 0.75 | 12.54 ± 0.41 | 10.29 ± 0.41 | 8.514 ± 0.41 | 7.148 ± 0.4 | 6.071 ± 0.4
x1 = 0.5421 | 1103.74 ± 0.63 | 1100.11 ± 0.66 | 1096.37 ± 0.65 | 1092.91 ± 0.67 | 1088.98 ± 0.73 | 15.06 ± 0.42 | 12.28 ± 0.42 | 10.14 ± 0.41 | 8.478 ± 0.41 | 7.143 ± 0.41
x1 = 0.6518 | 1106.25 ± 0.64 | 1102.58 ± 0.67 | 1098.97 ± 0.67 | 1095.29 ± 0.7 | 1091.34 ± 0.73 | 17.46 ± 0.43 | 14.11 ± 0.42 | 11.63 ± 0.41 | 9.672 ± 0.41 | 8.114 ± 0.41
x1 = 0.7525 | 1107.78 ± 0.68 | 1103.95 ± 0.7 | 1100.25 ± 0.7 | 1096.58 ± 0.68 | 1093.18 ± 0.7 | 19.3 ± 0.44 | 15.64 ± 0.43 | 12.82 ± 0.42 | 10.65 ± 0.41 | 8.937 ± 0.41
x1 = 0.7864 | 1107.94 ± 0.7 | 1104.26 ± 0.7 | 1100.56 ± 0.7 | 1096.89 ± 0.7 | 1093.37 ± 0.69 | 19.9 ± 0.44 | 16.12 ± 0.43 | 13.23 ± 0.42 | 10.96 ± 0.41 | 9.19 ± 0.41
x1 = 0.8499 | 1108.55 ± 0.69 | 1104.93 ± 0.7 | 1101.32 ± 0.71 | 1097.62 ± 0.72 | 1093.91 ± 0.74 | 20.61 ± 0.45 | 16.74 ± 0.43 | 13.73 ± 0.42 | 11.42 ± 0.41 | 9.461 ± 0.41
x1 = 0.9005 | 1108.84 ± 0.73 | 1105.16 ± 0.72 | 1101.55 ± 0.72 | 1097.87 ± 0.73 | 1094.19 ± 0.74 | 21.31 ± 0.45 | 17.23 ± 0.44 | 14.08 ± 0.42 | 11.69 ± 0.41 | 9.799 ± 0.41
x1 = 0.9503 | 1109.66 ± 0.74 | 1105.58 ± 0.75 | 1101.98 ± 0.74 | 1098.33 ± 0.75 | 1094.55 ± 0.76 | 21.74 ± 0.45 | 17.53 ± 0.44 | 14.41 ± 0.42 | 11.92 ± 0.42 | 9.999 ± 0.41
x1 = 1 | 1109.48 ± 0.75 | 1105.72 ± 0.75 | 1102.11 ± 0.76 | 1098.35 ± 0.76 | 1094.94 ± 0.75 | 22.16 ± 0.46 | 17.93 ± 0.44 | 14.71 ± 0.43 | 12.19 ± 0.42 | 10.19 ± 0.41
